The target of one experiment is Neprilysin (Homo sapiens, UniProt P08473). Kind of experiment: Inhibitory concentration against Neprilysin.
Experiment [1] addresses Angiotensin-converting enzyme (Homo sapiens, UniProt P12821). Kind of experiment: Inhibitory concentration against human angiotensin I converting enzyme.
The target in experiment [2] is T1, Endothelin-converting enzyme 1 (Homo sapiens, UniProt P42892).
T1 sequence (P42892 whole entry): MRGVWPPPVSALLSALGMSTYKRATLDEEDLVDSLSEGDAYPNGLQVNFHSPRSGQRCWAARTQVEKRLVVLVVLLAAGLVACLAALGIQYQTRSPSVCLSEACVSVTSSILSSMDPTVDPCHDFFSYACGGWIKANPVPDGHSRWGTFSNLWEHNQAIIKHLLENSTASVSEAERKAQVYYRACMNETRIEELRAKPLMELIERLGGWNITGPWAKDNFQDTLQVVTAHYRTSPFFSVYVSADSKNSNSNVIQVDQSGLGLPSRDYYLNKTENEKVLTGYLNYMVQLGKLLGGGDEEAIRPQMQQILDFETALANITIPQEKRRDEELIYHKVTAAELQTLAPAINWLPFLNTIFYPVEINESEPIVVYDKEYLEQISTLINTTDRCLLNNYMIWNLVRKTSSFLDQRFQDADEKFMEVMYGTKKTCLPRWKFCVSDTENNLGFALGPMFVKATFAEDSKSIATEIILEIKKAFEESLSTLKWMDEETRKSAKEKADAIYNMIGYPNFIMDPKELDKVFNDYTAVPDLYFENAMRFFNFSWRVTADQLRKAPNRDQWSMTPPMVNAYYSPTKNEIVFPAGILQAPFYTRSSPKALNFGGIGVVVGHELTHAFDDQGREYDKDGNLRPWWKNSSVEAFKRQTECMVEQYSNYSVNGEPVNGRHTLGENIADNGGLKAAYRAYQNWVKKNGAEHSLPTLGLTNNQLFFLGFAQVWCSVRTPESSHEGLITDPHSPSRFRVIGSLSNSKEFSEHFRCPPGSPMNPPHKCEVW
The experiment is described as follows: Inhibitory concentration against human ECE-1 expressed in MDCK cells. In kind it is cell-based.

Experiment [3] in a line: cells. Conditions: Homo sapiens, Glioblastoma.
Description: (§1) Inhibitory concentration against DNA synthesis in LNZ308 glioblastoma cells
In experiment [4] the target is T1, Endothelin-converting enzyme 1. Kind of experiment: Inhibitory concentration against human ECE-1 by RIA.
A short description of experiment [5]: cells. To be noted: Homo sapiens, Glioblastoma. The source holds these as a separate data set.
Description: Inhibitory concentration against DNA synthesis in LN18 glioblastoma cells
Experiment [6] can be described thus: cells. Conditions: Homo sapiens, Glioblastoma. The source holds these as a separate data set.
Description: Inhibitory concentration againstDNA synthesis in LN18 glioblastoma cells
A short description of experiment [7]: cells. Conditions: Homo sapiens, Glioblastoma. This is another data set of the same source.
Description: as §1
Experiment [8] in a line: Inhibitory concentration of the compound was determined against DNA synthesis in LN18 glioblastoma cells. Type of experiment: functional, cell-based. Conditions: Homo sapiens.

Each structure is given as a SMILES string. Bounds are passed on as bounds.

As a reminder, the IC50 is the concentration that gives 50% inhibition.

Chain of Angiotensin-converting enzyme (P12821 whole entry): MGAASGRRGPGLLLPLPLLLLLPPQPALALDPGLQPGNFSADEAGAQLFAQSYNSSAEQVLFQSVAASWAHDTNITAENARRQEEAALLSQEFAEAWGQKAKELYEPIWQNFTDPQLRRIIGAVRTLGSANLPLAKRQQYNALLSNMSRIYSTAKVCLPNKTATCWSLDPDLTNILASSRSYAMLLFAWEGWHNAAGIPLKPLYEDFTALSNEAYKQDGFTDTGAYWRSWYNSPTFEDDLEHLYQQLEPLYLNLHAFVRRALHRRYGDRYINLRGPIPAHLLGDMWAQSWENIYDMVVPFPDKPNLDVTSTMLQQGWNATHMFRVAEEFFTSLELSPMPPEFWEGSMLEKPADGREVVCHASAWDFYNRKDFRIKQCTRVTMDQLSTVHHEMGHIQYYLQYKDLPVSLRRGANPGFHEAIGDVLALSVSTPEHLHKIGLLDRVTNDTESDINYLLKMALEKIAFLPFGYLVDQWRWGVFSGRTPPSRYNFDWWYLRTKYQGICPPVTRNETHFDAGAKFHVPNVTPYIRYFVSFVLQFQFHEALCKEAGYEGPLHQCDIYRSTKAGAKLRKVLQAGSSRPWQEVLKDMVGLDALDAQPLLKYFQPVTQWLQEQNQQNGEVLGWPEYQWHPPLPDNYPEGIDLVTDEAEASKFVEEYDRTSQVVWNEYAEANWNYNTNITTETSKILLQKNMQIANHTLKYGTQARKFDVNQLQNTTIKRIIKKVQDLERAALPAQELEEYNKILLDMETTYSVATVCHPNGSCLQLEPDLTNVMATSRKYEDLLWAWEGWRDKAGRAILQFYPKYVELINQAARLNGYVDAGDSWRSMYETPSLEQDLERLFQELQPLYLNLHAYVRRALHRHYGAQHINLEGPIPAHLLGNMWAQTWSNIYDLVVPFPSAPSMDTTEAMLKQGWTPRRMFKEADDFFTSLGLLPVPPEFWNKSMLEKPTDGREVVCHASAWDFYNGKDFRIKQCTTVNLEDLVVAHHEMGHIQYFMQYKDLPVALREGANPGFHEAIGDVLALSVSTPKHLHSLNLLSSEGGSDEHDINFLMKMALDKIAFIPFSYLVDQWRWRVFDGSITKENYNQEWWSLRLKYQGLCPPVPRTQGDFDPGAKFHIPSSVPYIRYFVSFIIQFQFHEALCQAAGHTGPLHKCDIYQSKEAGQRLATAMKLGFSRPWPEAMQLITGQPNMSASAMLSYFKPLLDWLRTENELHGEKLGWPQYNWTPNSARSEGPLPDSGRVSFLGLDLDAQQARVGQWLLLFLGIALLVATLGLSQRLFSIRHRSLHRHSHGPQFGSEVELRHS
Chain of Neprilysin (P08473 whole entry): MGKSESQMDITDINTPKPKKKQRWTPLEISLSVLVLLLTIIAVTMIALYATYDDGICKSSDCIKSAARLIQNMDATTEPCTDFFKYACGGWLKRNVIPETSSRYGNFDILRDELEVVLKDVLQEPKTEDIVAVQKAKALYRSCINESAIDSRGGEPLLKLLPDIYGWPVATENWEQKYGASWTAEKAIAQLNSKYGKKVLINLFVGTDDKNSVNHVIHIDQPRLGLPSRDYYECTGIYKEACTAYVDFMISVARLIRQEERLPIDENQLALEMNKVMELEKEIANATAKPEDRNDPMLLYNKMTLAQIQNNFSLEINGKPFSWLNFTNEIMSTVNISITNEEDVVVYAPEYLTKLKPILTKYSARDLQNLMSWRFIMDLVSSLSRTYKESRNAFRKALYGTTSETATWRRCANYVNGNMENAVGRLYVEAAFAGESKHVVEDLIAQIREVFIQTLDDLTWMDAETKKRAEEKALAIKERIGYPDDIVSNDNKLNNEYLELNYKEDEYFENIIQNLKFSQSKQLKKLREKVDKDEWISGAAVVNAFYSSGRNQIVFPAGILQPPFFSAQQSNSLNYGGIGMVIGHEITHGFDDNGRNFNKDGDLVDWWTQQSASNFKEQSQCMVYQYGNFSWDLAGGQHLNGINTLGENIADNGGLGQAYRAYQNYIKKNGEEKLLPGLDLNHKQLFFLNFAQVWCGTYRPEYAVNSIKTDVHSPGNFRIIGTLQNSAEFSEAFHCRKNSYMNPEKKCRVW

On to `CC(C)OC(=O)N1C[C@H](S)C[C@H]1CNCc1cc(F)ccc1F`, for which the IC50 against Neprilysin is greater than 100 µM; in experiment [1], greater than 100 µM; in [2], 1090 nM; in “cells [3]”, 50 µM; in experiment [4], 16 nM; in “cells [5]”, 27 µM.

In the case of `COC(=O)c1ccccc1OC(=O)N1CC(S)CC1COCc1cc(F)c(F)cc1F` (centres undefined), the IC50 was greater than 100 µM against Neprilysin, 13.4 µM in [1], 67 nM in [2] and 1.2 nM in experiment [4].

`O=P(O)(O)C(Cc1ccc2ccccc2c1)N[C@@H](Cc1ccc(-c2ccccc2)cc1)c1nnn[nH]1` (some centres undefined) [CGS-314447] showed an IC50 in experiment [4] of 20 nM.

Take `COC(=O)c1ccccc1NC(=O)CN(C)C(=O)C1C[C@@H](S)CN1S(=O)(=O)c1ccc2ccccc2c1` (some centres undefined): the IC50 against Neprilysin came out at 81.9 µM; in experiment [1], 36.6 µM; in [2], 10900 nM; in “cells [3]” it was 16 µM; in experiment [4] it was 80.8 nM; in “cells [5]”, 12 µM.

With `CC(=O)S[C@@H]1C[C@@H](COCc2cc(F)c(F)cc2F)N(C(=O)Oc2cccc3c2OCCO3)C1`, the IC50 is greater than 100 µM against Neprilysin; greater than 100 µM in experiment [1]; 76.5 nM in experiment [2]; 14 µM in “cells [6]”; 16 µM in “cells [7]”; 6.9 nM in experiment [4].

Regarding `O=C(S[C@@H]1C[C@@H](COCc2cc(F)c(F)cc2F)N(C(=O)Oc2cccc3c2OCCO3)C1)c1ccccc1`, the IC50 against Neprilysin was greater than 100 µM; in experiment [1], greater than 100 µM; in [2] it was 480 nM; in the experiment “cells [3]”, 20 µM; in experiment [4] it was 49.7 nM; in “cells [5]”, 18 µM.

Regarding `Cc1ccc(S(=O)(=O)NN(C)C(=O)C2C[C@@H](S)CN2S(=O)(=O)c2ccc3ccccc3c2)cc1` (some centres undefined), the IC50 against Neprilysin was found to be 39.2 µM; in experiment [1], 14.6 µM; in [2], 2530 nM; in experiment [4], 61.3 nM.

Consider `CCCc1cnc(N2C[C@H](S)C[C@H]2CNCc2cc(F)ccc2F)nc1`, for which the IC50 on Neprilysin is greater than 100 µM; in experiment [1], 31.5 µM; in [2], 72.9 nM; in experiment [8], 19 µM; in “cells [7]” it was 40 µM; in experiment [4], 10.4 nM.

The record behind these values is ChEMBL document CHEMBL1144347, “Endothelin-converting enzyme-1 inhibition and growth of human glioblastoma cells” (J Med Chem, 2005).
